Assay results reported in patent US9110082B2, “Methods for the identification and treatment of patients sensitive to anti IGF-1R inhibition therapy” (MERCK SHARP & DOHME CORP., priority 2009, dated 2015).

Columns and labels:
22 NSCLC cell lines = settings: growth inhibition assay; cited from earlier work
NSCLC cell lines = assay: Anchorage independent growth (soft agar colony formation) assay in a panel of NSCLC cell lines; type: cell-based, human
Method: (§1) All NSCLC cell lines were obtained from ATCC and maintained in 10% fetal bovine serum, FBS (Hyclone) containing media (DMEM or RPMI; Invitrogen Inc) supplemented with pen-strep (Invitrogen) at 37° C. according to the instructions from ATCC.
Soft agar assays were conducted in 96 well glass bottom plates (MATRICAL). Cells were seeded at a concentration of 3,000-9,000 cells per WELL in 100 μl RPMI 1640 (INVITROGEN) supplemented with 14% FBS and 0.3% (w/v) […] Agarose (Lonza Rockland, Inc) on top of a bottom layer of consisting of the same culture media supplemented with 0.8% agarose. […] Cells were incubated for 7-14 days before staining overnight with LAVA CELL(Active Motif). Colonies were quantified using an ISOCYTE laser scanning cytometer.

Colo699 cell line = assay: Anchorage independent growth (soft agar) assay, Colo699; type: cell-based, human; settings: LKB1-high cell line; IGF-1 over-expression
Method: as §1
Soft agar assays were conducted in 96 well glass bottom plates (MATRICAL). Cells were seeded at a concentration of 3,000-9,000 cells per WELL in 100 μl RPMI 1640 (INVITROGEN) supplemented with 14% FBS and 0.3% (w/v) […] Agarose (Lonza Rockland, Inc) on top of a bottom layer of consisting of the same culture media supplemented with 0.8% agarose. Compounds were added in 100μl of culture media supplemented after agarose had solidified. Cells were incubated for 7-14 days before staining overnight with LAVA CELL(Active Motif). Colonies were quantified using an ISOCYTE laser scanning cytometer.

[1] = system: NSCLC cell lines expressing high levels of IGF-1R (NCI-H2122, A549, NCI-H460); assay: Xenograft growth assessment, NSCLC models with high IGF-1R; type: in vivo, nu/nu mice; settings: NCI-H2122, A549, NCI-H460 xenografts; as compared to erlotinib
Method: (§2) When tumors reached a size of ˜300 mm3 (Length*Width*Width*0.5), mice were randomized into treatment groups. […] Tumor weight was determined at termination. […] Mice were sacrificed 24 hr after the final dose.

[2] = system: xenograft models with low levels of IGF-1R expression (SKMES & NCI-H520); assay: Xenograft growth assessment, NSCLC models with low IGF-1R; type: in vivo, nu/nu mice; settings: SKMES & NCI-H520 xenografts
Method: as §2

| Substance | sensitivity of NSCLC cell lines to R1507 (22 NSCLC cell lines) | sensitivity (anchorage independent growth inhibition) of NSCLC cell lines expressing high levels of IGF-1R (NSCLC cell lines; 26 NSCLC cell lines, MK-0646 10 ug/ml, erlotinib 1 uM, IGF-1R high cell lines) | sensitivity in IGF-1R high cell lines expressing low levels of LKB1 (NSCLC cell lines; IGF-1R and LKB1 protein by RPPA) | MK-0646 sensitivity in LKB1-low cell lines (NSCLC cell lines; LKB1 protein not detectable by western blot (LKB1-low; n=11)) | sensitivity of Colo699 cell line (Colo699 cell line) | xenograft sensitivity [1] | xenograft sensitivity [2] |
| --- | --- | --- | --- | --- | --- | --- | --- |
| R1507: fully human IgG1 monoclonal antibody directed against the extracellular portion of the human IGF-1R | none of the lines displayed “high sensitivity” |  |  |  |  |  |  |
| MK-0646: humanized antibody characterized as binding IGF-1R as well as the IR/IGF-1 hybrid receptor; described in U.S. Pat. No. 7,241,444 |  | more sensitive | enriched | significantly enriched | very sensitive | significant sensitivity | did not show sensitivity |
